Experimental data as given in patent US8722897B2, “Metal complexes of thiourea and derivatives as metal delivering anti-cancer and anti-inflammatory agents” (priority 2010, dated 2014).

Columns and labels:
TrxR1 [1] = target: T1, TrxR1 (Rattus norvegicus, UniProt O89049); experiment: In vitro TrxR enzyme assay, with or without NADPH pre-reduction; format: biochemical
T1 sequence (O89049 1-499): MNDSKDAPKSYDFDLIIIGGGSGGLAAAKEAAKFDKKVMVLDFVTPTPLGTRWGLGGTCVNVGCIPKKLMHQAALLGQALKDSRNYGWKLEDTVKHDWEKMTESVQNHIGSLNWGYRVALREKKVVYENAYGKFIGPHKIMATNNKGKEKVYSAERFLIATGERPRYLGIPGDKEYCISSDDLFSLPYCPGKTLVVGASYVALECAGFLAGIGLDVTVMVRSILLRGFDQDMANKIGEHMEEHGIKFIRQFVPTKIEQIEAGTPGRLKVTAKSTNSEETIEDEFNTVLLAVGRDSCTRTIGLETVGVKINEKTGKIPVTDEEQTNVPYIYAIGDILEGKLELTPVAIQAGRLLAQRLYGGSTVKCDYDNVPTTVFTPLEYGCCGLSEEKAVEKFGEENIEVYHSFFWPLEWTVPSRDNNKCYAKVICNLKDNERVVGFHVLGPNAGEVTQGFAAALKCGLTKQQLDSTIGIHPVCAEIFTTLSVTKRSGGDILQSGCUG
Method: A plot of the kapp against the inhibitor concentrations followed a hyperbolic function (FIG. 8B). This is indicative of a two-step, tight-binding inhibition mechanism: […] DTNB (3 mM) and NADPH (0.2 mM) was then added. The TrxR1 activities were determined as the increases in O.D.412 nm over 10 min.

TrxR1 [2] = target: T1, TrxR1; experiment: biochemical; conditions: for Ki: progress curve analysis
Method: This was further studied by progress curve analysis (FIG. 8). ^24, 25 1 was added in excess (3-100 nM) to a reaction mixture containing 0.2 mM NADPH, 1 nM TrxR and 3 mM disulfide substrate 5,5′-dithiobis(2-nitrobenzoic acid) (DTNB) in phosphate buffer (pH 7.4). […] This was analyzed using Eq. 1 (Example 6), where P is the product concentration, vi and vf are the initial and final steady-state velocities, respectively, and kapp is the apparent first-order rate constant for establishment of the final steady-state inhibition. A plot of the kapp against the inhibitor concentrations followed a hyperbolic function (FIG. 8B). This is indicative of a two-step, tight-binding inhibition mechanism:
[formula] where EI is the initial collision complex, k3 is the forward isomerization rate, and k4 is the reverse isomerization rate. In this scheme, binding involves rapid formation of an initial collision complex (EI) that subsequently undergoes isomerization to the final slow dissociating enzyme-inhibitor complex (EI*). The k3, k4 and the dissociation constant of the initial collision complex EI (Ki′) can be obtained by fitting the data to Eq. 2.
1 was added in excess (3-100 nM) to a reaction mixture containing 0.2 mM NADPH, 1 nM TrxR1, 3 mM disulfide substrate 5,5′-dithiobis(2-nitrobenzoic acid) (DTNB), 100 mM phosphate buffer, pH 7.4 and 1 mM EDTA. The progress curves are non-linear, showing two-phase equilibria typical of slow-onset tight-binding inhibition. The data was fit into Eq. 1 using GraphPad Prism 3.0 software, P=vft+((vi−vf/kapp)(1−e^−kappt) (1) where P is the product concentration, vi and vf are the initial and final steady-state velocities, respectively, and kapp is the apparent first-order rate constant for establishment of the final steady-state inhibition. A plot of the kapp against the inhibitor concentrations followed a hyperbolic function (FIG. 8B). This is indicative of a two-step, tight-binding inhibition mechanism:
[formula] where EI is the initial collision complex, k3 is the forward isomerization rate, and k4 is the reverse isomerization rate. […]

COc1ccc(N2CCN(c3ccc(OC)cc3)C2=[S+][Au-][S+]=C2N(c3ccc(OC)cc3)CCN2c2ccc(OC)cc2)cc1 [complex 1, [Au(TU)2]Cl]
concentration for half maximal inhibition of TrxR (TrxR1 [1]; TrxR 1 nM): approximately equal molar concentration
inhibition of NADPH reduced TrxR compared with oxidized TrxR (TrxR1 [1]; with or without 0.2 mM NADPH pre-reduction): much more efficiently inhibited
recovery of enzyme activities after removal of the free inhibitors by ultrafiltration (TrxR1 [2]): could not be recovered
Ki (TrxR1 [2]; dissociation constant of the initial collision complex EI (Ki′)): 1390 pM
Ki (TrxR1 [2]; overall inhibitory constant Ki*, Eq. 3): 18 pM
